# Paper PMC9569995, “Study of Biological Activities and ADMET-Related Properties of Salicylanilide-Based Peptidomimetics” (International Journal of Molecular Sciences, 2022)
# Tests used:
# [1] = tested on: M. smegmatis ATCC 700084; experiment: In vitro antimycobacterial evaluation, MIC (broth dilution micro-method); format: cell-based, Mycobacterium smegmatis; details: Mycolicibacterium smegmatis, ATCC700084, 72 h
# [2] = tested on: M. smegmatis; details: cited from earlier work
# [3] = tested on: Bacillus cereus; details: cited from earlier work
# [4] = tested on: vancomycin-resistant E. faecalis VRE 725B; experiment: Determination of minimum bactericidal concentrations (agar aliquot subculture); details: Enterococcus faecalis
# [5] = tested on: vancomycin-resistant E. faecalis VRE 725B; experiment: In vitro antibacterial evaluation, MIC by microtitration broth method; details: Enterococcus faecalis, 24 h
# [6] = tested on: Mycobacterium tuberculosis H37Ra/ATCC 25177; experiment: In vitro antimycobacterial evaluation, MIC (alamarBlue); details: MT; 14 days, 37 °C
# [7] = tested on: vancomycin-resistant E. faecalis VRE 342B; experiment: Determination of minimum bactericidal concentrations (agar aliquot subculture); details: Enterococcus faecalis
# [8] = tested on: Staphylococcus aureus ATCC 29213; experiment: In vitro antibacterial evaluation, MIC by microtitration broth method; details: ATCC29213, 24 h
# [9] = tested on: Enterococcus faecalis ATCC 29212; experiment: as above; details: ATCC29212, 24 h
# [10] = tested on: methicillin-resistant S. aureus SA 3202; experiment: as above; details: Staphylococcus aureus, 24 h
# [11] = tested on: Staphylococcus aureus ATCC 29213; experiment: Determination of minimum bactericidal concentrations (agar aliquot subculture); details: ATCC29213
# [12] = tested on: vancomycin-resistant E. faecalis VRE 368; experiment: as above; details: Enterococcus faecalis
# [13] = tested on: methicillin-resistant S. aureus 63718; experiment: as above; details: Staphylococcus aureus
# [14] = tested on: methicillin-resistant S. aureus SA 630; experiment: In vitro antibacterial evaluation, MIC by microtitration broth method; details: Staphylococcus aureus, 24 h
# [15] = tested on: Mycobacterium kansasii; details: cited from earlier work
# [16] = tested on: vancomycin-resistant E. faecalis VRE 368; experiment: In vitro antibacterial evaluation, MIC by microtitration broth method; details: Enterococcus faecalis, 24 h
# [17] = tested on: methicillin-resistant S. aureus 63718; experiment: as above; details: Staphylococcus aureus, 24 h
# [18] = tested on: Clostridium perfringens; details: cited from earlier work
# [19] = tested on: methicillin-resistant S. aureus SA 630; experiment: Determination of minimum bactericidal concentrations (agar aliquot subculture); details: Staphylococcus aureus
# [20] = tested on: Enterococcus faecalis ATCC 29212; experiment: as above; details: ATCC29212
# [21] = tested on: human monocytic leukemia cell line THP-1; experiment: In vitro cell viability analysis (CCK-8); format: cell-based; details: ± SD, n = 6, medium with 10% FBS, 24 h
# How it was run: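 THP-1 cells in RPMI 1640 with 10% FBS exposed to DMSO-dissolved compounds for 24 h at 37 °C, 5% CO2, in complete medium. Viability read by CCK-8.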
# [22] = tested on: methicillin-resistant S. aureus SA 3202; experiment: Determination of minimum bactericidal concentrations (agar aliquot subculture); details: Staphylococcus aureus
# [23] = Lipophilicity determination by HPLC; format: physicochemical
# How it was run: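 Symmetry C18 column at 40 °C, isocratic MeOH 72% with 28% water for capacity factor k, or with 28% acetate-buffered saline pH 7.4 or 6.5 for D7.4/D6.5. UV 210 nm; dead time from KI. k and D calculated as (tR − tD)/tD; triplicate runs.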
# [24] = tested on: vancomycin-resistant E. faecalis VRE 342B; experiment: In vitro antibacterial evaluation, MIC by microtitration broth method; details: Enterococcus faecalis, 24 h
compound,measurement,setting,value
"CC(C)[C@H](NC(=O)c1cc(Cl)ccc1O)C(=O)Nc1ccc(C(F)(F)F)cc1 [3c, 5-Chloro-2-hydroxy-N-[(2S)-3-methyl-1-oxo-1-{[4-(trifluoromethyl)phenyl]amino}butan-2-yl]benzamide]",MIC,[1],77.1 µM
same,MIC,[2],77.1 µM
same,MIC,[3],2.41 µM
same,MBC,[4],38.6 µM
same,MIC,[5],38.6 µM
same,MIC,[6],77.1 n.d. µM
same,MBC,[7],38.6 µM
same,MIC,[8],2.41 µM
same,MIC,[9],38.6 µM
same,MIC,[10],4.82 µM
same,MBC,[11],4.82 µM
same,MBC,[12],38.6 µM
same,MBC,[13],9.64 µM
same,MIC,[14],4.82 µM
same,MIC,[15],38.6 µM
same,MIC,[16],38.6 µM
same,MIC,[17],4.82 µM
same,MIC,[18],4.82 µM
same,MBC,[19],4.82 µM
same,MBC,[20],38.6 µM
same,IC50,[21],> 10 µM
same,MBC,[22],4.82 µM
same,log D6.5,"[23]; HPLC C18, MeOH 72%/acetate-buffered saline pH 6.5 28%",0.973
same,log D7.4,"[23]; HPLC C18, MeOH 72%/acetate-buffered saline pH 7.4 28%",0.934
same,log k,"[23]; logarithm of capacity factor, HPLC C18, MeOH 72%/H2O 28%",1.081
same,MIC,[24],38.6 µM
